From patent US20060135458A1, “Antiviral oligonucleotides” (priority 2002, published 2006)
pIC50: −log10 of the molar value. In the oligonucleotide strings, read from the 5' end, every base follows the letter of its sugar. An asterisk marks phosphorothioate; unmarked linkages are phosphodiester. Other units and linkages are bracketed, terminal groups are in braces. A string of capitals states the bases alone. d = 2'-deoxy (DNA)

Legend:
HSV-1 (strain KOS) = test: HSV-1 plaque reduction assay (PRA) in VERO cells; format: cell-based; conditions: for pIC50: VERO cells, HSV-1 strain KOS, linear regressions, read-out: IC50 (anti-HSV-1)
Procedure: The ability of PS-ONs to inhibit HSV-1 is measured in a plaque reduction assay (PRA). […] Upon reaching confluency, the media is changed to contain only 5% serum plus supplements as described above and cells are then exposed to HSV-1 (strain KOS, approximately 40-60 PFU total) in the presence of the test compound for 90 minutes. After viral exposure, the media is replaced with new “overlay” media containing 5% serum, 1% human immunoglobulins, supplements as described above and the test compound. Plaque counting is performed 3-4 days post infection following formalin fixation and cresyl violet staining of infected cultures.
(§1) Viral adsorbtion proceeds for 90 minutes, after which cells are washed and replaced with new “overlay” media containing 5% fetal calf serum and 1% human immunoglobins. Three to four days after adsorbtion, cells are fixed by formalin and plaques are counted following formalin fixation and cresyl violet staining.
Upon reaching confluency, the media is changed to contain only 5% serum plus supplements as described above and cells are then exposed to HSV-1 (strain KOS, approximately 40-60 PFU total) in the presence of the test compound for 90 minutes. After viral exposure, the media is replaced with new “overlay” media containing 5% serum, 1% human immunoglobulins, supplements as described above and the test compound. Plaque counting is performed 3-4 days post infection following formalin fixation and cresyl violet staining of infected cultures.

HSV-2 (strain MS2) = test: HSV-2 plaque reduction assay (PRA); format: cell-based
Procedure: The ability of PS-ONs to inhibit HSV-2 is measured by PRA. […] Upon reaching confluency, the media is changed to contain only 5% serum plus supplements as described above and cells are then exposed to HSV-2 (strain MS2, approximately 40-60 PFU total) in the presence of the test compound for 90 minutes. After viral exposure, the media is replaced with new “overlay” media containing 5% serum, 1% human immunoglobulins, supplements as described above and the test compound. Plaque counting is performed 3-4 days post infection following formalin fixation and cresyl violet staining of infected cultures.
as §1

[1] = test system: HSV-1 (strain MacIntyre) lysate; test: Fluorescence polarization binding to HSV-1 lysate; conditions: FITC-labelled ON
HIV-1 (strain Mn) lysate = test: Fluorescence polarization binding to HIV-1 lysate; conditions: FITC-labelled ON
RSV (strain A2) lysate = test: Fluorescence polarization binding to RSV lysate; conditions: FITC-labelled ON
[2] = design: Acid stability, pH 5 / Acid stability, pH 7: key to the marks not given beside the values
Phosphodiesterase II = conditions: after 4 h at 37° C.
S1 Nuclease = S1 Nuclease (Aspergillus oryzae, UniProt P24021); conditions: after 4 h at 37° C.
Exonuclease I = Exonuclease I (Escherichia coli, UniProt P04995); design: key to the marks not given beside the values; conditions: after 4 h at 37° C.
Influenza A/HK/68 (H3N2) = test system: Influenza A/HK/68 (H3N2); design: species or system Balb/c mice; conditions: mouse, in vivo, ip, 180 mg/kg

Chain of Exonuclease I (P04995 whole entry): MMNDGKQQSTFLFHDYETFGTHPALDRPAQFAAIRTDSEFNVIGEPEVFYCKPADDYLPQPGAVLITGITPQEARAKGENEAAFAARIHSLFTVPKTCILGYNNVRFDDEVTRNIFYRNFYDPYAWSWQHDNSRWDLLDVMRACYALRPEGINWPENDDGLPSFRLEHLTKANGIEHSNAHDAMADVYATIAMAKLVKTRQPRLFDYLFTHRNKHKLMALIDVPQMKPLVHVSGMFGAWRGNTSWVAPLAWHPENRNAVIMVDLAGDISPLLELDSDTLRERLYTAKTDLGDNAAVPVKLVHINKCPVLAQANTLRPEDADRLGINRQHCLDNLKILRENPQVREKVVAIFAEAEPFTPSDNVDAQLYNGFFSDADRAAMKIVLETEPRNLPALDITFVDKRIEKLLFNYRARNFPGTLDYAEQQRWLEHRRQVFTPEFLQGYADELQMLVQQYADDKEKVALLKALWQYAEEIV
Chain of S1 Nuclease (P24021 21-287): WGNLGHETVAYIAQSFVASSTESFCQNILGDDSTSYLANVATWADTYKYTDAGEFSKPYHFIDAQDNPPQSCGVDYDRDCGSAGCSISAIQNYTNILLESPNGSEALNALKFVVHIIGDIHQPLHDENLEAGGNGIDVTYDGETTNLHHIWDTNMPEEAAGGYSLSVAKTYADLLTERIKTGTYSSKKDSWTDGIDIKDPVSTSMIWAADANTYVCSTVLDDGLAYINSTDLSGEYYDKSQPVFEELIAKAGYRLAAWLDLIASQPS

Compound | pIC50 (HSV-1 (strain KOS)) | anti-HSV-2 activity (HSV-2 (strain MS2)) | binding to HSV-1 lysate (fluorescence polarization, mP) [1] | binding to HIV-1 lysate (fluorescence polarization, mP) (HIV-1 (strain Mn) lysate) | binding to RSV lysate (fluorescence polarization, mP) (RSV (strain A2) lysate) | further results
REP 1001: PS-ON directed against a replication origin in humans (343 ARS) (DNA dT*dT*dG*dA*dT*dA*dA*dA*dT*dA*dG*dT*dA*dC*dT*dA*dG*dG*dA*dC) | 5.56 | showed anti-HSV-2 activity |  |  |  | 
TG10: 20-mer PS-ON, TG repeat |  |  | the strongest interaction | the strongest interaction | the strongest interaction | 
REP 2017: random sequence 20-mer PS-ON (DNA dA*dC*dA*dC*dC*dT*dC*dC*dG*dA*dA*dG*dA*dC*dG*dA*dT*dA*dA*dC) |  |  | capable of HSV-1 and HIV-1 interaction | capable of HSV-1 and HIV-1 interaction |  | 
REP 2001: PS-ON directed against the origin of replication in HSV (DNA dG*dA*dA*dG*dC*dG*dT*dT*dC*dG*dC*dA*dC*dT*dT*dC*dG*dT*dC*dC*dC*dA) | 6.11 | showed anti-HSV-2 activity |  |  |  | 
REP 2029: A40 (polyA) PS-ON (DNA dA*dA*dA*dA*dA*dA*dA*dA*dA*dA*dA*dA*dA*dA*dA*dA*dA*dA*dA*dA*dA*dA*dA*dA*dA*dA*dA*dA*dA*dA*dA*dA*dA*dA*dA*dA*dA*dA*dA*dA) |  |  |  |  |  | relative anti-HSV-1 efficacy by sequence composition (HSV-1 (strain KOS); PS-ONs of equivalent size, HSV-1 PRA): the least active; Acid stability, pH 1 ([2]; pH 1, 24 h at 37° C.): −; Acid stability, pH 2 ([2]; pH 2, 24 h at 37° C.): −; Acid stability, pH 2.5 ([2]; pH 2.5, 24 h at 37° C.): −; Acid stability, pH 3 ([2]; pH 3, 24 h at 37° C.): −; Acid stability, pH 4 ([2]; pH 4, 24 h at 37° C.): ++ (++ = less than 5-% degradation); Acid stability, pH 5 ([2]; pH 5, 24 h at 37° C.): +++; Acid stability, pH 7 ([2]; pH 7, 24 h at 37° C.): +++; Nuclease resistance, PII (Phosphodiesterase II): −; Nuclease resistance, S1 (S1 Nuclease): −; Nuclease resistance, Exo 1 (Exonuclease I): ++++
NC(=O)c1ncn([C@@H]2O[C@H](CO)[C@@H](O)[C@H]2O)n1 [Ribavirin] |  |  |  |  |  | Viral titer (log10/g lung) Mean (Influenza A/HK/68 (H3N2)): 3.3 log10/g lung
A20: 20-mer PS-ON, polyA, 3′ FITC labelled in the binding test |  |  | the weakest interactor of these by a significant margin | the weakest interactor of these by a significant margin | the weakest interactor of these by a significant margin | 
REP 3007: PS-ON directed against a plasmid (pBR322/pUC) replication origin (DNA dC*dT*dT*dG*dC*dG*dG*dT*dA*dT*dT*dC*dG*dG*dA*dA) | 5.27 | showed anti-HSV-2 activity |  |  |  | 
T20: 20-mer PS-ON, polyT |  |  | the weakest interactors | the weakest interactors | the weakest interactors | 
